Assay [1] concerns the target TEL-PDGFRβ fusion gene transfected cells (Ba/F3). Description: Suppression of proliferation of TEL-PDGFRβ fusion gene transfected Ba/F3 cells. The note with it: TEL-PDGFRβ expressing Ba/F3 cells, 72 hours, final concentration 0.1 to 10,000 nM; read-out: PDGFR β/BaF3 proliferation inhibition (IC50). It counts as cell-based, human. The text has this:
2. Preparation of Test Substance
4. Analysis of Measurement Results

Assay [2] addresses TEL-KIT fusion gene transfected cells (Ba/F3). Nature of the assay: Suppression of proliferation of TEL-KIT fusion gene transfected Ba/F3 cells.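 Also: viable cells quantified via formazan from tetrazolium reduction, inhibition scaled with 0.1% DMSO control as 0% and medium-only blank as 100%, IC50 from two-parameter logistic fit.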 The settings on record: read-out: KIT/BaF3 proliferation inhibition (IC50); TEL-KIT expressing Ba/F3 cells, 72 hours, final concentration 0.1 to 10,000 nM.
Excerpt: Fabrication of TEL-PDGFRβ and TEL-KIT Fusion Gene Transfected Cells
Subsequently, the vectors for gene transfection were introduced using a transfection reagent (FuGENE6, Promega Corporation) into packaging cells derived from a human fetal kidney cell line, PLAT-E, in the logarithmic growth phase. Since the culture supernatant of PLAT-E after the gene transfection contained virus particles for gene transfection, it was collected and used as a medium for gene transfection. The medium for gene transfection was added to a plate coated with RetroNectin and incubated, and the virus particles were allowed to adhere to the plate. Thereafter, the mouse pro-B cell line Ba/F3 in the logarithmic growth phase was seeded onto the plate and infected with the virus to fabricate cells that proliferate in a PDGFRβ or KIT dependent manner.
The test substance was prepared with dimethyl sulfoxide (DMSO) to 10 mM and diluted with DMSO so as to reach a concentration of 0.0001 to 3 mM. Furthermore, it was diluted by 100 times with distilled water.
Measurement of Suppression Action Against Proliferation of TEL-PDGFRβ or TEL-KIT Expressing Cells
The day after TEL-PDGFRβ and TEL-KIT expressing cells were seeded onto 96 well plates, the prepared test substance solution was added thereto with a final concentration being 0.1 to 10,000 nM. After 72 hours, the viable cell count was measured using the amount of formazan generated from the reduction of a tetrazolium salt compound by the mitochondrial dehydrogenase of viable cells as an indicator.
Based on the amount of formazan in each condition, the suppression rate against cell proliferation was calculated when the amounts of formazan in the negative control (0.1% DMSO solution) and Blank (medium only) were defined as 0% and 100%, respectively. Subsequently, a nonlinear regression analysis with a two parameter logistic model for the log dose and suppression rate against cell proliferation was carried out using the SAS system (SAS Institute Inc.) to estimate the IC50 value.
The subject of assay [3] is pulmonary arterial smooth muscle cells. Nature of the assay: Suppression of proliferation of pulmonary arterial smooth muscle cells (PDGF-BB stimulation, BrdU). It counts as cell-based. The settings on record: PASMC; human PDGF-BB 10 ng/mL, BrdU uptake, final concentration 3 to 10,000 nM; read-out: Human normal PASMC proliferation suppression (PDGF stimulation_IC50). The procedure, abridged:
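Test compound (final 3 to 10,000 nM) was added together with BrdU and PDGF-BB (final 10 ng/mL) to healthy human pulmonary artery smooth muscle cells held a day in 0.1% FBS. Proliferation was read after 1 day as anti-BrdU-detected BrdU incorporation.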

Assay [4] addresses PDGFR-β (Homo sapiens (Human), UniProt P09619). Nature of the assay: PDGFR-β tyrosine kinase inhibitory action (HTRF KinEASE-TK). It counts as biochemical. The settings on record: PDGFR-β enzyme 1 ng/μL, 30° C. for 30 minutes; read-out: PDGF-β IC50. The procedure, abridged: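 Recombinant PDGFR-β at 1 ng/μL final with TK substrate-3-biotin in a substrate solution containing 0.6 μM ATP; buffer 50 mM HEPES pH 7.0, 5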

Chain of TEL-KIT fusion gene transfected cells (Ba/F3) (P10721 26-976 limits assumed, change not shown): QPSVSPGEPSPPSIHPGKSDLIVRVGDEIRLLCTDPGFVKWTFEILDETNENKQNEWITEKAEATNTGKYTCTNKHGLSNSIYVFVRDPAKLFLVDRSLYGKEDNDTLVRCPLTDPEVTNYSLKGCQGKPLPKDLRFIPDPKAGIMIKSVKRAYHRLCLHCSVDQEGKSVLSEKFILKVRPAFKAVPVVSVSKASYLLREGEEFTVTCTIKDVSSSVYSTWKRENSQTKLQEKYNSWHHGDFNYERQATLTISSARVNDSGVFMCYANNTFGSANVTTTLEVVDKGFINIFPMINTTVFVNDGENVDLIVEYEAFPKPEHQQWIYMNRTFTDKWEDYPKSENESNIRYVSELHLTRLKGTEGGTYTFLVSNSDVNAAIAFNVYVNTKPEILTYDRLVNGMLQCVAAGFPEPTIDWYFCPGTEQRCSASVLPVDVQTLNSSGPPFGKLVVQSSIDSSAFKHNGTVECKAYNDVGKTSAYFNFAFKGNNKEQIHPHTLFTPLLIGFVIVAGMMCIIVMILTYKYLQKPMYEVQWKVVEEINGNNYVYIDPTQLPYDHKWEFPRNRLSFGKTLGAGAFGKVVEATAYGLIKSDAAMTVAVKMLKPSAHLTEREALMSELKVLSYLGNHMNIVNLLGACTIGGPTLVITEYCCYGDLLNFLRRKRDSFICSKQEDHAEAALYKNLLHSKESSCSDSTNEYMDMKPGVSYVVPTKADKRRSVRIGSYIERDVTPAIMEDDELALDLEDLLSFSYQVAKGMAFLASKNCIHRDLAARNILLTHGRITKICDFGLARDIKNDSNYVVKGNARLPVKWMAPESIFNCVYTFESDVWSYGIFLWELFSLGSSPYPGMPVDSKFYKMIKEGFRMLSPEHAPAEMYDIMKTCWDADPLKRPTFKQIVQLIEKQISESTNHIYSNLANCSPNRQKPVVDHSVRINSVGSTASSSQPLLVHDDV
Chain of TEL-PDGFRβ fusion gene transfected cells (Ba/F3) (P09619 33-1106 limits assumed, change not shown): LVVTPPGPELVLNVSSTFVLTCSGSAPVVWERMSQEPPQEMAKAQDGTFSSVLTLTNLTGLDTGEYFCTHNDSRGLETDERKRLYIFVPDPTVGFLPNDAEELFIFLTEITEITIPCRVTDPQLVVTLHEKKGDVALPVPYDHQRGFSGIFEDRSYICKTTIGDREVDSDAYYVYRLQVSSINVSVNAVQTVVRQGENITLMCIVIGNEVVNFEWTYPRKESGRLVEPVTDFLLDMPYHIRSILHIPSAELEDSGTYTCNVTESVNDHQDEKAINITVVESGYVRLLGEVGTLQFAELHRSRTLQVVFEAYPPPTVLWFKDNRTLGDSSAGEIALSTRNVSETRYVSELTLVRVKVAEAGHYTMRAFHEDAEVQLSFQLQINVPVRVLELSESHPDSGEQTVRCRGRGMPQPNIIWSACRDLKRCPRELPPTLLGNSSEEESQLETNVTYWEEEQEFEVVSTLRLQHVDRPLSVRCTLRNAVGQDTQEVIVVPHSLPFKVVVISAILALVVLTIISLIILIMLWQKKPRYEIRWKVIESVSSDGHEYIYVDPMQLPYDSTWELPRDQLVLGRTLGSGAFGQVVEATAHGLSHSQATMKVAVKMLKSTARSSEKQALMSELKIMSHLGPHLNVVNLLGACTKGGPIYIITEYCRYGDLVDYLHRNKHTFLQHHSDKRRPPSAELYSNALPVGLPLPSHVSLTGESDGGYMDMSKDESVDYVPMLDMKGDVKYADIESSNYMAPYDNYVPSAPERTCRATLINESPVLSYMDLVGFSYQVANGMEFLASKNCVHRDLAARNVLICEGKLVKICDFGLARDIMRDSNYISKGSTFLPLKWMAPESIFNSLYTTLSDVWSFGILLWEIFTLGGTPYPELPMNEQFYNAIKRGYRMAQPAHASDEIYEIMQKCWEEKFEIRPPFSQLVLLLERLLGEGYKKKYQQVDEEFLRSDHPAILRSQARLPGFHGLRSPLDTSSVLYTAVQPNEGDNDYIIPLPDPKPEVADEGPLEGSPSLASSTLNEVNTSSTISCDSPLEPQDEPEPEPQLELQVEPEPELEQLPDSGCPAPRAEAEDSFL
Chain of PDGFR-β (P09619 33-1106): as the sequence (P09619 33-1106 limits assumed, change not shown) above

For `Cc1ccc(C(=O)N[C@H]2CCCC[C@@H]2O)cc1NC(=O)c1cncc(OC(C)C)c1` [Example 7, N-(5-{[(1S,2S)-2-hydroxycyclohexyl]carbamoyl}-2-methylphenyl)-5-[(propan-2-yl)oxy]pyridine-3-carboxamide], the IC50 stood at 43 nM in assay [1], 1900 nM in assay [2], 150 nM in assay [3] and 170 nM in assay [4].

Take `Cc1ccc(C(=O)N[C@H]2CCCC[C@@H]2O)cc1NC(=O)c1cnc(NCC2CC2)s1` [Example 8, 2-[(cyclopropylmethyl)amino]-N-(5-{[(1S,2S)-2-hydroxycyclohexyl]carbamoyl}-2-methylphenyl)-1,3-thiazole-5-carboxamide]: the IC50 was found to be 9.7 nM in assay [1], 650 nM in assay [2], 110 nM in assay [3] and 6 nM in assay [4].

In the case of `Cc1ccc(C(=O)N[C@H]2CCCC[C@@H]2O)cc1NC(=O)c1cncc(-c2ccc(Cl)cc2)c1` [Example 9, 5-(4-chlorophenyl)-N-(5-{[(1S,2S)-2-hydroxycyclohexyl]carbamoyl}-2-methylphenyl)pyridine-3-carboxamide], the IC50 came out at 22 nM in assay [1], 530 nM in assay [2], 46 nM in assay [3] and 26 nM in assay [4].

As for `CCCc1ncc(C(=O)Nc2cc(C(=O)N[C@H]3CCCC[C@@H]3O)ccc2C)s1` [Example 10, N-(5-{[(1S,2S)-2-hydroxycyclohexyl]carbamoyl}-2-methylphenyl)-2-propyl-1,3-thiazole-5-carboxamide], the IC50 in assay [1] was 25 nM; in assay [2] it was 660 nM; in assay [3], 140 nM; in assay [4] it was 220 nM.

Turning to `Cc1ccc(C(=O)N[C@H]2CCCC[C@@H]2O)cc1NC(=O)c1cncc(-c2cccc(Cl)c2)c1` [Example 11, 5-(3-chlorophenyl)-N-(5-{[(1S,2S)-2-hydroxycyclohexyl]carbamoyl}-2-methylphenyl)pyridine-3-carboxamide], the IC50 in assay [1] was 13 nM; in assay [2] it was 310 nM; in assay [3] it was 49 nM; in assay [4] it was 17 nM.

Regarding `Cc1ccc(C(=O)N[C@H]2CCCC[C@@H]2O)cc1NC(=O)c1cncc(-c2ccccc2C)c1` [Example 12, N-(5-{[(1S,2S)-2-hydroxycyclohexyl]carbamoyl}-2-methylphenyl)-5-(2-methylphenyl)pyridine-3-carboxamide], the IC50 in assay [1] is 35 nM; in assay [2] it was 800 nM; in assay [3], 65 nM; in assay [4], 170 nM.

Turning to `Cc1ccc(C(=O)N[C@H]2CCCC[C@@H]2O)cc1NC(=O)c1cncc(-c2ccccc2Cl)c1` [Example 13, 5-(2-chlorophenyl)-N-(5-{[(1S,2S)-2-hydroxycyclohexyl]carbamoyl}-2-methylphenyl)pyridine-3-carboxamide], the IC50 in assay [1] amounted to 17 nM; in assay [2], 790 nM; in assay [3], 100 nM; in assay [4], 140 nM.

For `CCC[C@@H](CO)NC(=O)c1ccc(C)c(NC(=O)c2cncc(-c3ccccc3)c2)c1` [Example 14, N-(5-{[(2S)-1-hydroxypentan-2-yl]carbamoyl}-2-methylphenyl)-5-phenylpyridine-3-carboxamide], the IC50 turned out to be 11 nM in assay [1], 330 nM in assay [2], 48 nM in assay [3] and 40 nM in assay [4].

Consider `Cc1ccc(C(=O)N[C@H]2CCCC[C@@H]2O)cc1NC(=O)c1cncc(/C=C/C2CC2)c1` [Example 15, 5-[(E)-2-cyclopropylethenyl]-N-(5-{[(1S,2S)-2-hydroxycyclohexyl]carbamoyl}-2-methylphenyl)pyridine-3-carboxamide], for which the IC50 in assay [1] was 3.9 nM; in assay [2], 330 nM; in assay [3], 18 nM; in assay [4] it was 11 nM.

As to `Cc1ccc(C(=O)N[C@H]2CCCC[C@@H]2O)cc1NC(=O)c1cncc(NCC2CC2)c1` [Example 16, 5-[(cyclopropylmethyl)amino]-N-(5-{[(1S,2S)-2-hydroxycyclohexyl]carbamoyl}-2-methylphenyl)pyridine-3-carboxamide], the IC50 in assay [1] amounted to 130 nM; in assay [2], 1300 nM; in assay [3], 81 nM; in assay [4], 22 nM.

As for `Cc1ccc(C(=O)N[C@H]2CCCC[C@@H]2O)cc1NC(=O)c1cncc(N(C)C2CC2)c1` [Example 17, 5-[cyclopropyl(methyl)amino]-N-(5-{[(1S,2S)-2-hydroxycyclohexyl]carbamoyl}-2-methylphenyl)pyridine-3-carboxamide], the IC50 was found to be 10 nM in assay [1], 800 nM in assay [2], 130 nM in assay [3] and 42 nM in assay [4].

Consider `COc1ccc(-c2cncc(C(=O)Nc3cc(C(=O)N[C@H]4CCCC[C@@H]4O)ccc3C)c2)cc1` [Example 18, N-(5-{[(1S,2S)-2-hydroxycyclohexyl]carbamoyl}-2-methylphenyl)-5-(4-methoxyphenyl)pyridine-3-carboxamide], for which the IC50 stood at 20 nM in assay [1], 530 nM in assay [2], 47 nM in assay [3] and 39 nM in assay [4].

As to `Cc1ccc(C(=O)N[C@H]2CCCC[C@@H]2O)cc1NC(=O)c1cncc(-c2ccc(F)cc2)c1` [Example 19, 5-(4-fluorophenyl)-N-(5-{[(1S,2S)-2-hydroxycyclohexyl]carbamoyl}-2-methylphenyl)pyridine-3-carboxamide], the IC50 in assay [1] is 30 nM; in assay [2], 1000 nM; in assay [3], 81 nM; in assay [4], 13 nM.

As to `Cc1ccc(C(=O)N[C@H]2CCCC[C@@H]2O)cc1NC(=O)c1cncc(-c2cccc(F)c2)c1` [Example 20, 5-(3-fluorophenyl)-N-(5-{[(1S,2S)-2-hydroxycyclohexyl]carbamoyl}-2-methylphenyl)pyridine-3-carboxamide], the IC50 in assay [1] amounted to 24 nM; in assay [2], 900 nM; in assay [3] it was 77 nM; in assay [4], 13 nM.

As for `Cc1ccc(C(=O)N[C@H]2CCCC[C@@H]2O)cc1NC(=O)c1cncc(-c2ccc(C(F)(F)F)cc2)c1` [Example 21, N-(5-{[(1S,2S)-2-hydroxycyclohexyl]carbamoyl}-2-methylphenyl)-5-[4-(trifluoromethyl)phenyl]pyridine-3-carboxamide], the IC50 in assay [1] is 60 nM; in assay [2] it was 2000 nM; in assay [3], 140 nM; in assay [4] it was 73 nM.

Take `Cc1ccc(C(=O)N[C@H]2CCCC[C@@H]2O)cc1NC(=O)c1cncc(-c2cccc(C(F)(F)F)c2)c1` [Example 22, N-(5-{[(1S,2S)-2-hydroxycyclohexyl]carbamoyl}-2-methylphenyl)-5-[3-(trifluoromethyl)phenyl]pyridine-3-carboxamide]: the IC50 was 59 nM in assay [1], 900 nM in assay [2], 100 nM in assay [3] and 14 nM in assay [4].

As to `CC(C)=Cc1cncc(C(=O)Nc2cc(C(=O)N[C@H]3CCCC[C@@H]3O)ccc2C)c1` [Example 23, N-(5-{[(1S,2S)-2-hydroxycyclohexyl]carbamoyl}-2-methylphenyl)-5-(2-methylprop-1-en-1-yl)pyridine-3-carboxamide], the IC50 in assay [1] was 4.9 nM; in assay [2], 620 nM; in assay [3] it was 64 nM; in assay [4], 26 nM.

These data come from US12509424B2, “Compound and composition as PDGF receptor kinase inhibitor” (NIPPON SHINYAKU CO., LTD., priority 2019, dated 2025).
